Source: patent US9963488B2, “Variants of the lantibiotic MU1140 and other lantibiotics with improved pharmacological properties and structural features” (priority 2012, dated 2018)

Experiments:
[1] = tested on: vancomycin-resistant Enterococcus faecium (VREF); conditions: cited from earlier work
[2] = tested on: Micrococcus luteus ATCC10240; assay: Minimum inhibitory concentration; format: cell-based; conditions: THyex medium; 24 hour incubation; peptide about 90% purity
Procedure: (§1) Wild-type mutacin 1140, mutacin 1140 with a F1I mutation, mutacin 1140 with a W4A mutation, and mutacin 1140 with a R13D mutation was purified to about 90% purity (measured via HPLC). The minimum inhibitory concentration (MIC) of MU1140 and variants of MU1140 was determined against several bacteria. The MIC is the lowest concentration of MU1140 that will inhibit the visible growth of a microorganism after 24 hour incubation. A lower MIC is an indication of greater inhibitory activity. Preparation of the antimicrobial agent and bacterial inoculum for minimum inhibitory concentrations (MICs) was performed by following the method described in Clinical Laboratory Standard Institute (CLSI) M07-8A with some minor modifications. Streptococcus mutans UA159 was tested overnight in a shaking incubator to maintain uniform dispersion of the bacteria. Clostridium difficile UK1 was tested in an anaerobic chamber at 37° C. The medium used was THyex.

[3] = tested on: Clostridium difficile UK1; assay: Minimum inhibitory concentration; format: cell-based; conditions: THyex medium; anaerobic chamber at 37° C.; peptide about 90% purity
Procedure: as §1

[4] = tested on: Staphylococcus aureus FA1; assay: Minimum inhibitory concentration; format: cell-based; conditions: THyex medium; 24 hour incubation; peptide about 90% purity
Procedure: as §1

[5] = tested on: Streptococcus pneumonia FA1; assay: Minimum inhibitory concentration; format: cell-based; conditions: THyex medium; 24 hour incubation; peptide about 90% purity
Procedure: as §1

[6] = tested on: Streptococcus mutans UA159; assay: Minimum inhibitory concentration; format: cell-based; conditions: THyex medium; overnight in shaking incubator; peptide about 90% purity
Procedure: as §1

[7] = tested on: Gram-negative bacteria or yeast; conditions: cited from earlier work
[8] = tested on: multi-drug resistant strains of S. aureus; conditions: cited from earlier work
[9] = tested on: S. aureus or Streptococcus pneumoniae; conditions: repeated subculture in medium with sub-lethal concentrations; cited from earlier work
S. pneumonia = conditions: cited from earlier work
[10] = tested on: all Gram positive bacteria against which it was tested; conditions: cited from earlier work
Staphylococcus aureus = conditions: pilot study; 60 times the LD50 of Staphylococcus aureus administered; cited from earlier work
[11] = cited from earlier work
[12] = murine models, cited from earlier work

In the case of “Mu1140 Wild-type: wild-type lantibiotic MU1140 (SEQ ID NO:17) produced by Streptococcus mutans strain JH1140 (FKAWXLAXPGAARXGAFNAYA; not fully specified; lantibiotic post-translational modifications; DISULFID (3)..(7); (5)..(5) X is Dha amino acid; DISULFID (8)..(11); MOD_RES (8)..(8) Abu; (14)..(14) X is Dhb amino acid; DISULFID (16)..(21); (19)..(21) lanthionine bridge)”, the “mode of antibacterial action” value [1] is given as “bacteriostatic”, the “MIC Micrococcus luteus ATCC10240” value [2] is given as 0.0625 and the “MIC Clostridium difficile UK1” value [3] is given as 16. The “MIC Staphylococcus aureus FA1” value [4] was 16, the “MIC Streptococcus pneumonia FA1” value [5] was 0.5 and the “MIC Streptococcus mutans UA159” value [6] was 2. The activity [7] was “no activity”, the “mode of antibacterial action” value [8] was “bactericidal” and the “development of significant resistance” value [9] was “not observed”. For the same substance, the “mode of antibacterial action” value (S. pneumonia) was “bactericidal”, the “minimum inhibitory concentration (MIC)” value [10] was “submicromolar” and the efficacy (Staphylococcus aureus) was “efficacy was achieved”. For the same substance, the cytotoxicity in vitro [11] was “low cytotoxicity”, the toxicity ([12]; intravenous route) was “low toxicity” and the distribution [12] was “distributed into all body compartments”.
